Earlier results in patent US20080319079A1 (priority 2006, published 2008).

Assays:
[1] = test system: patients with reversible obstructive respiratory diseases; conditions: for duration of action (bronchodilation): patients with asthma and related respiratory illnesses, inhalation
[2] = repeated doses administered frequently up to a maximum dose of 80 μg per day

Structure (SMILES): OCc1cc(C(O)CNCCCCCCOCCCCc2ccccc2)ccc1O (centres unmarked) [Salmeterol]
- onset of action ([1]; after inhalation): approximately thirty
- duration of action (bronchodilation) [1]: twelve

Structure (SMILES): COc1ccc(CC(C)NCC(O)c2ccc(O)c(NC=O)c2)cc1 (centres unmarked) [formoterol, N-[2-hydroxy-5-(1-hydroxy-2-((2-(4-methoxyphenyl)-1-methylethyl)-amino)-ethyl)phenyl]formamide]
- side effects [2]: no more side effects than short acting bronchodilators

Structure (SMILES): CC(C)(C)NCC(O)c1ccc(O)c(CO)c1 (centres unmarked) [salbutamol]
- duration of action (bronchodilation) [1]: four to six

Structure (SMILES): CC(C)(C)NCC(O)c1cc(O)cc(O)c1 (centres unmarked) [terbutaline]
- duration of action (bronchodilation) [1]: four to six
